From patent publication US12351571B2, “Substituted quinoxaline compounds as inhibitors of FGFR tyrosine kinases” (ARRAY BIOPHARMA INC., priority 2018, dated 2025) come the findings set out here.

One assay addresses human wild type FGFR1 (Homo sapiens (Human), UniProt P11362). The assay is described as follows: FGFR1 pERK Cell Assay. Particulars: HEK-293 cells, 1 hour compound, 100 ng/ml human FGF-acidic; maximum concentration 5 μM. In kind it is cell-based. How it is done:
HEK-293 cells transfected with doxycycline(dox)-inducible human wild type FGFR1 (SEQ ID NO: 1) were plated in a collagen or poly-D-lysine coated 96 well flat bottom plates at 4×10^5 cells/well in complete Dulbecco's Modified Eagle Medium (DMEM) containing 10% FBS and 1 μg/ml doxycycline and allowed to attach for 24 h at 37° C., 5% CO2. Cells were treated with compound using 1:3 serial dilutions with a maximum final concentration of 5 μM. Compound was incubated on cells for 1 hour at 37° C., 5% CO2. Cells were then stimulated with a final concentration of 100 ng/ml human FGF-acidic (R&D Systems Cat number 232-FA/CF) for 5 minutes at 37° C., 5% CO2. Medium was removed, and cells were lysed with lysis buffer containing phosphatase and protease inhibitors. Phospho ERK1/2 was measured using the Meso Scale Discovery sandwich assay (Meso Scale Discovery cat. no. K151DWD). The assay captures phospho ERK1/2 and detects with a sulfo-tagged total ERK1/2 antibody. The chemiluminescent signal was read on the Sector Imager Plate reader. 100 POC was determined using no test compound and 0 POC was determined using a control compound. The POC values were fit to a 4-parameter logistic curve as a function of the concentration of the compound, and the IC50 value is the point where the curve crosses 50 POC.

A further assay concerns the target FGFR3 (Homo sapiens (Human), UniProt P22607). The experiment in a line: FGFR Enzyme Activity Assay (LanthaScreen TR-FRET), FGFR3. The format is biochemical. The conditions noted are these: 25 μM ATP, 10 minute incubation; read-out: FGFR3 Enz FRET IC50. As for the experimental part:
FGFR3 kinase activity was measured by the Invitrogen LanthaScreen™ Assay technology which directly measures the amount of substrate phosphorylation by TR-FRET using a flourescently-labeled peptide and Europium-labeled antibody. Briefly, 750 pM N-terminal GST-HIS6 fusion protein with a 3C cleavage site recombinant human FGFR3 (amino acids R397-T806) (ProQinase Cat. No. 1068-0000-1) was incubated with 100 nM Alexa Fluor® 647-Poly-GT Peptide Substrate (Life Technologies Cat. No. PV5836) and 25 μM ATP along with test compound in a buffer consisting of 250 mM HEPES, 25 mM MgCl2, 0.05% TritonX-100, pH 7.5, and 2% DMSO. Compounds were typically prepared in a threefold serial dilution in DMSO and added to the assay to give the appropriate final concentration. After a 10 minute incubation at 22° C., an equal volume of 2 nM LanthaScreen® Eu-PY20 Antibody (Life Technologies Cat. No. PV5691) and 10 mM EDTA were added to quench the kinase reaction and start the detection reaction. After an additional 60 minute incubation at 22° C., the reaction was measured using a PerkinElmer EnVision multimode plate reader via TR-FRET dual wavelength detection, and the percent of control (POC) calculated using a ratiometric emission factor. 100 POC was determined using no test compounds and 0 POC was determined using no enzyme. The POC values were fit to a 4-parameter logistic curve as a function of the concentration of the compound, and the IC50 value is the point where the curve crosses 50 POC.

For a further assay, the target named is FGFR1 (Homo sapiens (Human), UniProt P11362). The assay is described as follows: LC/MS FGFR1 kobs assay (covalent modification). The format is biochemical. The conditions noted are these: 500 nM FGFR1, 3 μM compound. How it is done: The LC/MS FGFR1 and FGFR3 kobs assays were conducted as follows. 500 nM FGFR1 (Array BioPharma construct p1702; SEQ ID NO: 1, amino acids 458-765) or FGFR3 (Array BioPharma construct p1700; SEQ ID NO: 5, amino acids 449-759) were incubated with 3 μM compound in 25 mM HEPES (4-(2-hydroxyethyl)-1-piperazineethanesulfonic acid), pH 7.4, 5 mM MgCl2, 150 mM NaCl, 0.5 mM TCEP (tris(2-carboxyethyl) phosphine), and 2% DMSO in a total volume of 20 μL. At each time point, the reaction was quenched with 20 μL of 0.4% formic acid. The extent of protein modification by each compound was determined by LC/MS on an Agilent Technologies 6520 Q-TOF LC/MS. Protein signals were then automatically deconvoluted using Agilent Masshunter software. Deconvoluted mass signals were exported to Tibco Spotfire data analysis program for further processing and normalization.
Chain of FGFR1 (P11362 458-765): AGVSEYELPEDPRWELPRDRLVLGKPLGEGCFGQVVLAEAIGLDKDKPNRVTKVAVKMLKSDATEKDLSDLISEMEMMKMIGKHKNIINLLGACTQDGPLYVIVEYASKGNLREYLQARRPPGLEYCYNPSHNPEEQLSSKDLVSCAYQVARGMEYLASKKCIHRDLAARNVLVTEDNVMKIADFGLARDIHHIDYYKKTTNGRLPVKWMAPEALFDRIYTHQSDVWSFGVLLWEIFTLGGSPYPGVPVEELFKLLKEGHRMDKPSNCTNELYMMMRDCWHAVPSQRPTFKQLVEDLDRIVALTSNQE
Data analysis included five steps. First, the signals for the “DMSO Controls” were analyzed to determine the percent of signal associated with unmodified FGFR1 or FGFR3 at each time point. Next, the percent of the signal associated with the covalent modification was determined. Third, the average nonmodified “DMSO Control” signal was used to normalize the modified protein signals at each time point. The percent of unmodified protein was fit to an exponential decay model where A0 is the Percent Unmodified at the start of the reaction, and kobs is the observed rate constant over the time period.

The target in the next assay is dephosphorylated FGFR1 (Homo sapiens (Human), UniProt P11362). The experiment in a line: FGFR Enzyme Binding Assay (HTRF tracer displacement), FGFR1. The conditions noted are these: 5 nM dephosphorylated FGFR1, 60 minute incubation at 22° C.; read-out: FGFR1 Enz Binding IC50. How it is done: The potency of compounds inhibiting human isoforms of FGFR kinase was determined using Life Technologies' Homogeneous Time Resolved Fluorescence (HTRF)-based binding assay technology. An incubation was conducted with either 5 nM dephosphorylated FGFR1 (Array Biopharma, p1702; SEQ ID NO: 1, amino acids 458 to 765, dephosphorylated by co-expression with PTP1b (protein tyrosine phosphatase 1B)), 5 nM dephosphorylated FGFR2 (Life Technologies, Cat. No. PV4106 that had been dephosphorylated with Lambda protein phosphatase (New England Biolabs, cat #P0753)) or 5 nM phosphorylated FGFR3 (Array Biopharma, p1836; SEQ ID NO: 5, amino acids 449 to 759), 50 nM Kinase Tracer 236 (Life Technologies Cat. No. PR9078A), 2 nM Biotin-anti-6HIS (Life Technologies Cat. No. PV6090) and 2 nM Europium-Streptavidin (Life Technologies Cat. No. PV6025) along with test compound in a buffer consisting of 50 mM HEPES ((4-(2-hydroxyethyl)-1-piperazineethanesulfonic acid, pH 7.5), 5 mM MgCl2, 0.005% Triton X-100, 1 mM DTT, 1 mM NaVO4 and 2% DMSO in a final volume of 12 μL Compounds were typically prepared as a 3-fold or 4-fold serial dilution in DMSO and added to the assay to give the appropriate final concentration. After a 60 minute incubation at 22° C., the extent of tracer displacement was determined using a PerkinElmer EnVision multimode plate reader via HTRF dual wavelength detection, and the percent of control (POC) was calculated using a ratiometric emission factor. One hundred POC was determined using no test compound, and 0 POC was determined in the presence of 1 μM of an appropriate control inhibitor. A 4-parameter logistic curve was fit to the POC values as a function of the concentration of compound, and the IC50 value was the point where the best-fit curve crossed 50 POC.
Chain of dephosphorylated FGFR1 (P11362 458-765): as above

Chain of FGFR3 (P22607 397-806): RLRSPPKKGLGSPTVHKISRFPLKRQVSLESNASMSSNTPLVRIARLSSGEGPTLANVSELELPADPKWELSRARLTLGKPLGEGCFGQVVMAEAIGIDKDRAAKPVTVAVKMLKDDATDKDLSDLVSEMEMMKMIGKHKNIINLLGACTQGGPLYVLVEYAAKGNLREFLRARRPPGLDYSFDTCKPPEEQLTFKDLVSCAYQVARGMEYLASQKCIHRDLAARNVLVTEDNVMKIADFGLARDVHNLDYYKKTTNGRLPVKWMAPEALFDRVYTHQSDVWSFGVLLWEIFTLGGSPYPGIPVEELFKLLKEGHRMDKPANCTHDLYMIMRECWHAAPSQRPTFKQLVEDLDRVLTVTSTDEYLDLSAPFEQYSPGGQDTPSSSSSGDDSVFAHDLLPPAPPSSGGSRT
Chain of human wild type FGFR1 (P11362 22-822): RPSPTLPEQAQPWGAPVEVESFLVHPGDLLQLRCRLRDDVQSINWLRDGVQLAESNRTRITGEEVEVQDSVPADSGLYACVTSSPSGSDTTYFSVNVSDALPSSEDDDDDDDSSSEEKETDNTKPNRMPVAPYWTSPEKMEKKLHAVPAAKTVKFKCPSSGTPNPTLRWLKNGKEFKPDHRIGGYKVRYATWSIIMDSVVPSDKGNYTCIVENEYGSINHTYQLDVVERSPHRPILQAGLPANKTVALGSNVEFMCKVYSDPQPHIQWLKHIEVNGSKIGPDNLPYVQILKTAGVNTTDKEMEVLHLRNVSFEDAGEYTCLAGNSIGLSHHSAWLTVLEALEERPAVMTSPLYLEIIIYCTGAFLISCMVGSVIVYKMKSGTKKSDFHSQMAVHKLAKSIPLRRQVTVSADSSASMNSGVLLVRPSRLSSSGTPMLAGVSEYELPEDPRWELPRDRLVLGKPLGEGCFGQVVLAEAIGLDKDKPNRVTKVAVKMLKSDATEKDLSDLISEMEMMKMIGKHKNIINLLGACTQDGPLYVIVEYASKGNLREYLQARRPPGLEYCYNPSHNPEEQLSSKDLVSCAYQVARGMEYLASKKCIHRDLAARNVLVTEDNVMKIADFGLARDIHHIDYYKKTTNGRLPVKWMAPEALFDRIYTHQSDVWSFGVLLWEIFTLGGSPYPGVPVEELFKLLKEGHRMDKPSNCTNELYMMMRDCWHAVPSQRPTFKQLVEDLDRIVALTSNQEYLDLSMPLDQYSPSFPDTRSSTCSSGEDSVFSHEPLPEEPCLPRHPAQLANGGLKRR

For the compound `COc1cc(Nc2ccc3ncc(-c4cnn([C@@H]5CCN(C(=O)C6(F)CN(C(=O)/C=C/CN(C)C)C6)C5)c4)nc3c2)cc(OC)c1` [Example 19, (R,E)-1-(3-(3-(4-(7-((3,5-dimethoxyphenyl)amino)-quinoxalin-2-yl)-1H-pyrazol-1-yl)pyrrolidine-1-carbonyl)-3-fluoro-azetidin-1-yl)-4-(dimethyl-amino)but-2-en-1-one], the IC50 at human wild type FGFR1 came to 1280 nM; on FGFR3, 50 nM; at dephosphorylated FGFR1, 55 nM. Moreover, at FGFR1, the “FGFR1 Enz kobs” value worked out at 0.00339 min⁻¹.

On to `COc1cc(Nc2ccc3ncc(-c4cnc(N5CCN(C(=O)C6(F)CN(C(=O)/C=C/CN(C)C)C6)CC5)cc4C)nc3c2)cc(OC)c1` [Example 14, (E)-1-(3-(4-(5-(7-((3,5-dimethoxyphenyl)amino)-quinoxalin-2-yl)-4-methylpyridin-2-yl)-piperazine-1-carbonyl)-3-fluoroazetidin-1-yl)-4-(dimethylamino)but-2-en-1-one], for which the results for the IC50 on human wild type FGFR1, at FGFR3 and at dephosphorylated FGFR1 were 1940 nM, 490 nM and 4140 nM, respectively. Besides, at FGFR1, the “FGFR1 Enz kobs” value stood at 0.00326 min⁻¹.

Regarding `COc1cc(Nc2ccc3ncc(-c4ccc(N5CCN(C(=O)C6CN(C(=O)/C=C/CN(C)C)C6)CC5)nc4)nc3c2)cc(OC)c1` [Example 6, (E)-1-(3-(4-(5-(7-((3,5-dimethoxyphenyl)amino)-quinoxalin-2-yl)pyridin-2-yl)piperazine-1-carbonyl)azetidin-1-yl)-4-(dimethylamino)but-2-en-1-one], the half-inhibitory concentration (IC50) was at least 5000 nM against human wild type FGFR1, 161 nM on FGFR3 and 132 nM at dephosphorylated FGFR1. Besides, the “FGFR1 Enz kobs” value at FGFR1 came out at 0.00259 min⁻¹.

As for `C=CC(=O)N1CC(C(=O)N2CC(n3cc(-c4cnc5ccc(Nc6cc(OC)cc(OC)c6)cc5n4)cn3)C2)C1` [Example 16, 1-(3-(3-(4-(7-((3,5-dimethoxyphenyl)amino)-quinoxalin-2-yl)-1H-pyrazol-1-yl)azetidine-1-carbonyl)azetidin-1-yl)-prop-2-en-1-one], the results for the IC50 against human wild type FGFR1, at FGFR3 and at dephosphorylated FGFR1 were 3000 nM, 18 nM and 30 nM, respectively. Also, the “FGFR1 Enz kobs” value at FGFR1 worked out at 0.00151 min⁻¹.

Turning to `C#CCN(c1cc(OC)cc(OC)c1)c1ccc2ncc(-c3cnn(C4CCN(C(=O)C5(F)CN(C(=O)/C=C/CN(C)C)C5)CC4)c3)nc2c1` [Example 28, (E)-1-(3-(4-(4-(7-((3,5-dimethoxyphenyl)(prop-2-yn-1-yl)amino)quinoxalin-2-yl)-1H-pyrazol-1-yl)piperidine-1-carbonyl)-3-fluoroazetidin-1-yl)-4-(dimethylamino)but-2-en-1-one], the half-inhibitory concentration (IC50) against human wild type FGFR1 is 34 nM; on FGFR3, 6 nM; on dephosphorylated FGFR1 it was 6 nM. The “FGFR1 Enz kobs” value on FGFR1 amounted to 0.01569 min⁻¹.

For `COc1cc(Nc2ccc3ncc(-c4ccc(N5CCN(C(=O)C6(F)CN(C(=O)/C=C/CN(C)C)C6)CC5)nc4)nc3c2)cc(OC)c1` [Example 7, (E)-1-(3-(4-(5-(7-((3,5-dimethoxyphenyl)amino)-quinoxalin-2-yl)pyridin-2-yl)piperazine-1-carbonyl)-3-fluoroazetidin-1-yl)-4-(dimethylamino)but-2-en-1-one], the concentration for half-maximal inhibition (IC50) is 1530 nM on human wild type FGFR1, 277 nM at FGFR3 and 342 nM at dephosphorylated FGFR1. Also, the “FGFR1 Enz kobs” value at FGFR1 is 0.00659 min⁻¹.

Turning to `C=CC(=O)N1CC[C@@H](C(=O)N2CCC(n3cc(-c4cnc5ccc(Nc6cc(OC)cc(OC)c6)cc5n4)cn3)CC2)C1` [Example 2, (R)-1-(3-(4-(4-(7-((3,5-dimethoxyphenyl)amino)-quinoxalin-2-yl)-1H-pyrazol-1-yl)piperidine-1-carbonyl)pyrrolidin-1-yl)-prop-2-en-1-one], the IC50 against human wild type FGFR1 amounted to 852 nM; at FGFR3, 10 nM; at dephosphorylated FGFR1 it was 24 nM. The “FGFR1 Enz kobs” value on FGFR1 was determined as 0.00038 min⁻¹.

Turning to `COc1cc(Nc2ccc3ncc(-c4cnn(C5CCN(C(=O)C6CN(C(=O)/C=C/CN(C)C)C6)CC5)c4)nc3c2)cc(OC)c1` [Example 9, (E)-1-(3-(4-(4-(7-((3,5-dimethoxyphenyl)amino)-quinoxalin-2-yl)-1H-pyrazol-1-yl)piperidine-1-carbonyl)azetidin-1-yl)-4-(dimethylamino)but-2-en-1-one], the results for the 50% inhibitory concentration (IC50) against human wild type FGFR1, on FGFR3 and on dephosphorylated FGFR1 were 2230 nM, 23 nM and 22 nM, respectively. The “FGFR1 Enz kobs” value at FGFR1 was 0.00278 min⁻¹.

With `COc1cc(Nc2ccc3ncc(-c4cn(C5CCN(C(=O)C6(F)CN(C(=O)/C=C/CN(C)C)C6)CC5)nc4C)nc3c2)cc(OC)c1` [Example 22, (E)-1-(3-(4-(4-(7-((3,5-dimethoxyphenyl)amino)-quinoxalin-2-yl)-3-methyl-1H-pyrazol-1-yl)-piperidine-1-carbonyl)-3-fluoroazetidin-1-yl)-4-(dimethylamino)but-2-en-1-one], the IC50 came out at 898 nM against human wild type FGFR1, 79 nM at FGFR3 and 131 nM at dephosphorylated FGFR1. The “FGFR1 Enz kobs” value at FGFR1 was determined as 0.00673 min⁻¹.

On to `C=CC(=O)N1CC(C(=O)N2CCC(n3ncc(-c4cnc5ccc(Nc6cc(OC)cc(OC)c6)cc5n4)c3C)CC2)C1` [Example 18, 1-(3-(4-(4-(7-((3,5-dimethoxyphenyl)amino)-quinoxalin-2-yl)-5-methyl-1H-pyrazol-1-yl)piperi-dine-1-carbonyl)azetidin-1-yl)prop-2-en-1-one], for which the half-inhibitory concentration (IC50) turned out to be 3660 nM against human wild type FGFR1, 373 nM on FGFR3 and 244 nM on dephosphorylated FGFR1. Moreover, on FGFR1, the “FGFR1 Enz kobs” value amounted to 0.00096 min⁻¹.
